# Experimental data: patent publication US10350272B2, “Calcitonin analogues for treating diseases and disorders” (KeyBioscience AG, priority 2015, dated 2019)
# Where no end group is shown, it is not given here.
# Tests used:
# [1] = test system: liver sections from HFD-fed rats; assay: Oil-Red-O staining of frozen liver sections; type: in vivo, rat
# Description: At termination of the study of Example 2 the rat livers were embedded using snap freezing in OCT, and then sectioned using a cryomicrotome. Sections were prepared from four groups, KBP-042 in HFD rats, KBP-089 in HFD rats, control HFD rats, and a lean rat comparison.
# The sections were stained using Oil-Red-O staining. […] The lipid accumulation in pair-fed KBP-089 liver exceeded KBP-089 treated rats with 66.5% (p<0.001) and was not significant different from vehicle (0.6711). Statistical test performed was one-way ANOVA with Dunnet's post test for multiple comparisons. **p<0.01, ***p<0.001.
# [2] = amylin dosage 100 μg kg^−1, compared with saline; cited from earlier work
# [3] = test system: cultured rat hepatocytes; conditions: cited from earlier work
# [4] = test system: rats; conditions: s.c., single dose 1000 mU/rat or 0.5-50 mU/rat over 12 weeks, dose dependently; cited from earlier work
molecule,measurement,setting,value
AcCSNLSTCMLGRLSQDLHRLQTYPKTDVGANAP-NH2 (Ac-CSNLSTCMLGRLSQDLHRLQTYPKTDVGANAP-NH2; ends and bridges not checked) [KBP-089],excess of lipid accumulation in pair-fed KBP-089 liver over KBP-089 treated rats (Oil-Red-O),"[1]; 2.5 μg/kg, p<0.001",66.5%
same,decrease of HFD-induced lipid accumulation in liver compared to vehicle (Oil-Red-O),"[1]; HFD rats, 2.5 μg/kg daily",155.3%
"amylin (KCNTATCATQRLANFLVRSSNNLGPVLPPTNVGSNTY; ends and bridges not checked; cysteine pairing not given here; UniProt P12969 38-74, looked up) [amylin administered alone in Kusakabe et al (2011), reference compound]",tissue triglyceride content,[2],neither L nor A decreased
salmon calcitonin [synthetic salmon calcitonin],incorporation of acetate into cholesterol and triglycerides,[3],reduced
same,serum cholesterol levels,[4],reduced
same,serum lipoprotein levels,[4],reduced
same,serum triglyceride levels,[4],reduced
"leptin (protein, UniProt P50596 22-167, looked up, leptin administered alone in Kusakabe et al (2011)) Leptin: VPIHKVQDDTKTLIKTIVTRINDISHTQSVSARQRVTGLDFIPGLHPILSLSKMDQTLAVYQQILTSLPSQNVLQIAHDLENLRDLLHLLAFSKSCSLPQTRGLQKPESLDGVLEASLYSTEVVALSRLQGSLQDILQQLDLSPEC",tissue triglyceride content,[2],neither L nor A decreased
